Structures are written as SMILES.

Series [1] can be described thus: Mouse pharmacokinetics in neurosensory retina after intraocular injection. It is filed as in vivo. Here is the method:
Pharmacokinetic analysis of 32-134D in the neurosensory retina following intraocular administration was determined by liquid chromatography and tandem mass spectrometry (LC-MS/MS) to quantify the concentration of 32-134D in retinal tissue over 14 days following a single 70-ng intraocular injection of 32-134D (see Methods of all parameters). […] The total exposure (area under the curve or AUClast) was 72.3 nmol*day/g.
Mouse pharmacokinetics: C57BL/6 mice were administered 32-134D at 70 ng or 280 ng as a single intraocular injection. Mice (at least 3 mice per time point) were euthanized at 1, 3, 7, or 14 days after injection. For the 280-ng dose, a 10-day time point was added. 32-134D was quantified in retina by LC-MS/MS as previously described (S. Salman et al., 2022, J Clin Invest 132) with the following modifications. Retina tissue samples were homogenized in […] of 1×PBS (pH 7.4) before extraction. The standard curve and quality control samples were prepared in 1×PBS as a surrogate matrix. Retina tissue samples were then quantitated in nmol/g as: nominal concentration (nM)×initial dilution ([tissue weight (mg)+volume of solvent (μl)]/tissue weight (mg)). For all samples <10 nM, the value was reported as below the limits of detection. If at least on samples was >10 nM and one was <10 nM, then one half that value (5 nM) was imputed to calculate the concentration for that specimen and utilized in the average and standard deviation calculations.
Pharmacokinetic parameters: These were calculated from mean concentration-time data using noncompartmental methods in Phoenix WinNonlin version 8.3 (Certara, Princeton, NJ, USA). The Cmax and time to Cmax (Tmax) were the observed values. The AUClast was calculated using the log-linear trapezoidal method to the last quantifiable time point. The λz was determined from at least 3 points on the slope of the terminal phase of the concentration-time profile using a 1/y2 weighting factor. The T1/2 was determined by dividing 0.693 by […]. T1/2 was not reported if the correlation coefficient (r2) for λz was less than 0.9.
Bioanalytical method for mouse pharmacokinetics: Retina tissue samples were homogenized in 200 μL of 1×PBS (pH 7.4) before extraction. The standard curve and quality control samples were prepared in 1×PBS as a surrogate matrix for all matrices. Tissue homogenate or PBS (25 μL) was added to a borosilicate glass test tube and mixed with 150 μL of acetonitrile containing the internal standard (1 ng/mL of EXP-3179). For blank samples, 150 μL of acetonitrile was added without internal standard. Samples were vortex-mixed and centrifuged (1200×g for 5 minutes at ambient temperature) and transferred to an autosampler vial. […] The column effluent was monitored using an AB Sciex Triple Quadrupole 5500 mass spectrometer. […]

The test system of another series is Hepa1-6 HCC tumors. Kind of series: Hepa1-6 tumor growth in syngeneic C57L mice. It is filed as in vivo, mouse. The settings on record: 32-134D 40 mg/kg/d intraperitoneal. The protocol: To test whether 32-134D inhibits HCC growth in an immunocompetent mouse model, Hepa1-6 HCC cells were injected into the flank of syngeneic C57L mice (Darlington G J et al., J Natl Cancer Inst. 1980; 64(4):809-819). When tumors became palpable (treatment day 1), mice received daily intraperitoneal injections of 32-134D (40 mg/kg/d) versus vehicle control, or anti-Pd1 antibody versus IgG2a isotype control ([…] on days 1, 4, 7, 10, and 16), or both 32-134D and anti-Pd1. Tumors grew very rapidly in all mice treated with vehicle or IgG2a, necessitating euthanasia on or before day 24 (FIG. 9). Tumors regressed in 5 out of 12 mice treated with anti-Pd1, but two tumors recurred after the last antibody treatment (on day 16) for a tumor eradication rate of only 25%. […] Thus, addition of 32-134D increased the percentage of mice with a durable complete response to anti-Pd1 immune checkpoint blockade from 25% to 67%.
Protocols were approved by the Johns Hopkins University Animal Care and Use Committee and used in accordance with the NIH Guide for the Care and Use of Laboratory Animals (National Research Council, 2011). Female nude mice (NCI Athymic NCr-nu/nu) and male C57L/J mice were purchased from Charles River and The Jackson Laboratory, respectively. Hep3B (8×106) and Hepa1-6 (1×107) cells were implanted subcutaneously in 6- to 8-week-old mice, and tumor volume was calculated: V=abc×0.52. […]

The next series concerns VEGF and ANGPTL4 mRNA. Kind of series: mRNA expression in hypoxic MIO-M1 cells. The class given is cell-based, human. As to conditions: hypoxia, 10 μM. The protocol: It has previously been reported that the cells in the inner nuclear layer of the retina that express VEGF in response to hypoxia/ischemia are Müller glial cells (X. Xin et al., Proc Natl Acad Sci USA 110, E3425-3434 (2013)). […] The effects of 32-134D on HIF-1α accumulation persisted up to 16 hours after treatment of cultured cells (FIG. 27B).
Reverse transcription and quantitative real-time PCR: Total RNA was isolated from cultured cells or retinas with PureLink™ RNA Mini Kit (Invitrogen #12183025), and cDNA was prepared with MuLV Reverse Transcriptase (Applied Biosystems). Quantitative real-time PCR was performed with Power SYBR Green PCR Master Mix (Applied Biosystems) and MyiQ Real-Time PCR Detection System (Bio-Rad). Normalization was done using cyclophilin A for mouse tissue and human cell lines.

For the compound `Brc1ccc2c(-c3csc(-c4c[nH]c5c(Br)cccc45)n3)c[nH]c2c1` [Compound 32-134D, 4-(6-bromo-1H-indol-3-yl)-2-(7-bromo-1H-indol-3-yl)thiazole], the “time retina concentration exceeded in vitro IC50 of 3.5 μM” value in series [1] (single 70-ng intraocular injection) came to 5.25 days. The “total exposure (AUClast) in neurosensory retina” value in series [1] (single 70-ng intraocular injection, 14 days) was 72.3 nmol·days/g. Further, the “terminal half-life (T1/2) in retina” value in series [1] (single intraocular injection 280 ng) came to 43.2 h. The “AUClast in neurosensory retina” value in series [1] (single intraocular injection 280 ng, through 14 days) came out at 147 nmol·days/g. Also, in the series on Hepa1-6 HCC tumors, the “mice with tumor eradication” value is listed as 4 of 12 and the tumor growth result was “marked inhibition of tumor growth in all mice”. Also, in the series with VEGF and ANGPTL4 mRNA, the “mRNA expression of VEGF and ANGPTL4” value is “potent inhibition”.
